The compounds below were run against recombinant human NUDT5 (Homo sapiens, UniProt Q9UKK9) (assay: NUDT5 inhibitor activity by malachite green reporter assay). Details: Table 3; 6 nM NUDT5, 50 μM ADP-Ribose, 15 minutes at room temperature.
Assay type: biochemical
Method: NUDT5 inhibitors were evaluated using a coupled enzymatic assay with detection of inorganic phosphate (Pi) using the malachite green assay. Following enzymatic hydrolysis of ADP-Ribose (Sigma-Aldrich A0572) by NUDT5, to yield AMP and ribose-5-phosphate, the latter product is continuously processed by a significant excess of alkaline phosphatase (Sigma-Aldrich, P0114). Formation of Pi is quantified based on the green complex (that absorbs at 630 nm) formed between malachite green and molybdate according to published procedure (Baykov, A. A., Evtushenko, O. A. and Avaeva, S. M., Anal Biochem, 171, 266-270 (1988)). Assay buffer consisted of 10 mM Tris-acetate at pH 8.0, 40 mM sodium chloride, 10 mM magnesium acetate, 0.005% Tween-20 and 1 mM dithiothreitol (DTT). The final conditions consisted of 6 nM recombinant human NUDT5, 50 μM ADP-Ribose and 10 U/ml of calf intestine alkaline phosphatase. The plates with compounds, enzymes and substrate were incubated at room temperature for 15 minutes, after which the reaction was terminated and the signal developed by the addition of the malachite green reagent using a MultiDrop (Thermo Scientific). Following vigorous shaking on plate shakers for a minimum of eight minutes the absorbance was read in a microplate reader (HidexSense) using a filter at 630 nm and a read time of 0.1 s per well. Inhibitors were used in dilutions from 100 μM to 1.7 nM in 3-fold dilution steps. Experiments were run in duplicate and confirmed in two independent experiments. IC50 values were determined by curve fitting using ExcelFit.
With `CN(C)c1nc2c(c(=O)n(C)c(=O)n2C)n1Cc1nnc(-c2ccc(Cl)c(Cl)c2)o1` [Example 3, 7-{[5-(3,4-dichlorophenyl)-1,3,4-oxadiazol-2-yl]methyl}-8-(dimethylamino)-1,3-dimethyl-2,3,6,7-tetrahydro-1H-purine-2,6-dione] the IC50 was 111 nM. In the case of `Cc1cccc(-c2nnc(Cn3c(N(C)C)nc4c3c(=O)n(C)c(=O)n4C)o2)c1` [Example 48, 8-(dimethylamino)-1,3-dimethyl-7-{[5-(3-methylphenyl)-1,3,4-oxadiazol-2-yl]methyl}-2,3,6,7-tetrahydro-1H-purine-2,6-dione], the IC50 is reported as 69.4 nM. `CCCCCCN1CCN(c2nc3c(c(=O)n(C)c(=O)n3C)n2Cc2nnc(-c3ccc(Cl)c(Cl)c3)o2)CC1` [Example 15, 7-{[5-(3,4-dichlorophenyl)-1,3,4-oxadiazol-2-yl]methyl}-8-(4-hexylpiperazin-1-yl)-1,3-dimethyl-2,3,6,7-tetrahydro-1H-purine-2,6-dione] showed an IC50 of 432 nM. Compound `Cn1c(=O)c2c(nc(N3CCC(O)CC3)n2Cc2nnc(-c3ccc(Cl)c(Cl)c3)o2)n(C)c1=O` [Example 37, 7-{[5-(3,4-dichlorophenyl)-1,3,4-oxadiazol-2-yl]methyl}-8-(4-hydroxypiperidin-1-yl)-1,3-dimethyl-2,3,6,7-tetrahydro-1H-purine-2,6-dione] has an IC50 of 19.8 nM. Compound `CN(C)C1CCN(c2nc3c(c(=O)n(C)c(=O)n3C)n2Cc2nnc(-c3ccc(Cl)c(Cl)c3)o2)CC1` [Example 45, 7-{[5-(3,4-dichlorophenyl)-1,3,4-oxadiazol-2-yl]methyl}-8-[4-(dimethylamino)piperidin-1-yl]-1,3-dimethyl-2,3,6,7-tetrahydro-1H-purine-2,6-dione] has an IC50 of 14.9 nM. `CNc1nc2c(c(=O)n(C)c(=O)n2C)n1Cc1nnc(-c2ccc(Cl)c(Cl)c2)o1` [Example 5, 7-{[5-(3,4-dichlorophenyl)-1,3,4-oxadiazo-2-yl]methyl}-1,3-dimethyl-8-(methylamino)-2,3,6,7-tetrahydro-1H-purine-2,6-dione] was tested, and the IC50 was 12.5 nM. `C=CCN(CC=C)c1nc2c(c(=O)n(C)c(=O)n2C)n1Cc1nnc(-c2ccc(Cl)c(Cl)c2)o1` [Example 8, 8-[bis(prop-2-en-1-yl)amino]-7-{[5-(3,4-dichlorophenyl)-1,3,4-oxadiazol-2-yl]methyl}-1,3-dimethyl-2,3,6,7-tetrahydro-1H-purine-2,6-dione] gave an IC50 of 162 nM. `Cn1c(=O)c2c(nc(N3CCC4(CC3)NC(=O)NC4=O)n2Cc2nnc(-c3ccc(Cl)c(Cl)c3)o2)n(C)c1=O` [Example 22, 8-(7-{[5-(3,4-dichlorophenyl)-1,3,4-oxadiazol-2-yl]methyl}-1,3-dimethyl-2,6-dioxo-2,3,6,7-tetrahydro-1H-purin-8-yl)-1,3,8-triazaspiro[4.5]decane-2,4-dione] gave an IC50 of 35.1 nM. With `Cn1c(=O)c2c(nc(N3CCCC(O)C3)n2Cc2nnc(-c3ccc(Cl)c(Cl)c3)o2)n(C)c1=O` (stereo not shown) [Example 44, 7-{[5-(3,4-dichlorophenyl)-1,3,4-oxadiazol-2-yl]methyl}-8-(3-hydroxypiperidin-1-yl)-1,3-dimethyl-2,3,6,7-tetrahydro-1H-purine-2,6-dione] the IC50 was 21.5 nM. For `Cn1c(=O)c2c(nc(N3CCCC(F)C3)n2Cc2nnc(-c3ccc(Cl)c(Cl)c3)o2)n(C)c1=O` (stereo not shown) [Example 41, 7-{[5-(3,4-dichlorophenyl)-1,3,4-oxadiazol-2-yl]methyl}-8-(3-fluoropiperidin-1-yl)-1,3-dimethyl-2,3,6,7-tetrahydro-1H-purine-2,6-dione], the IC50 was 24.2 nM.

Same assay, conditions: Table 4; 6 nM NUDT5, 50 μM ADP-Ribose, 15 minutes at room temperature
Work on `Cn1c(=O)c2c(nc(N3CCNCC3)n2Cc2nnc(-c3ccc(Cl)cc3)o2)n(C)c1=O` [Example 108, 7-{[5-(4-chlorophenyl)-1,3,4-oxadiazol-2-yl]methyl}-1,3-dimethyl-8-(piperazin-1-yl)-2,3,6,7-tetrahydro-1H-purine-2,6-dione] yielded an IC50 of 99 nM. For `COc1cccc(-c2nnc(Cn3c(N4CCNCC4)nc4c3c(=O)n(C)c(=O)n4C)o2)c1` [Example 111, 7-{[5-(3-methoxyphenyl)-1,3,4-oxadiazol-2-yl]methyl}-1,3-dimethyl-8-(piperazin-1-yl)-2,3,6,7-tetrahydro-1H-purine-2,6-dione], the IC50 was 119 nM. In the case of `Cn1c(=O)c2c(nc(N3CCN(C(=O)OC(C)(C)C)CC3)n2Cc2nnc(-c3ccc([N+](=O)[O-])cc3)o2)n(C)c1=O` [Example 100, tert-butyl 4-(1,3-dimethyl-7-{[5-(4-nitrophenyl)-1,3,4-oxadiazol-2-yl]methyl}-2,6-dioxo-2,3,6,7-tetrahydro-1H-purin-8-yl)piperazine-1-carboxylate], the IC50 is reported as 9440 nM. For `Cn1c(=O)c2c(nc(Cl)n2Cc2nnc(-c3ccccc3)o2)n(C)c1=O` [Example 88, 8-chloro-1,3-dimethyl-7-[(5-phenyl-1,3,4-oxadiazol-2-yl)methyl]-2,3,6,7-tetrahydro-1H-purine-2,6-dione], the IC50 was 3590 nM. For `Cn1c(=O)c2c(nc(N3CCNCC3)n2Cc2coc(-c3ccc(Cl)c(Cl)c3)n2)n(C)c1=O` [Example 72, 7-{[2-(3,4-dichlorophenyl)-1,3-oxazol-4-yl]methyl}-1,3-dimethyl-8-(piperazin-1-yl)-2,3,6,7-tetrahydro-1H-purine-2,6-dione], the IC50 was 21 nM. Work on `Cn1c(=O)c2c(nc(Cl)n2Cc2coc(-c3ccc(Cl)c(Cl)c3)n2)n(C)c1=O` [Example 71, 8-chloro-7-{[2-(3,4-dichlorophenyl)-1,3-oxazol-4-yl]methyl}-1,3-dimethyl-2,3,6,7-tetrahydro-1H-purine-2,6-dione] yielded an IC50 of 81.6 nM. `Cn1c(=O)c2c(nc(Cl)n2Cc2nnc(-c3ccc([N+](=O)[O-])cc3)o2)n(C)c1=O` [Example 96, 8-chloro-1,3-dimethyl-7-{[5-(4-nitrophenyl)-1,3,4-oxadiazol-2-yl]methyl}-2,3,6,7-tetrahydro-1H-purine-2,6-dione] was tested, and the IC50 was 1510 nM. In the case of `COc1cc(-c2nnc(Cn3c(N4CCC(N(C)C)CC4)nc4c3c(=O)n(C)c(=O)n4C)o2)ccc1C` [Example 126, 8-[4-(dimethylamino)piperidin-1-yl]-7-{[5-(3-methoxy-4-methylphenyl)-1,3,4-oxadiazol-2-yl]methyl}-1,3-dimethyl-2,3,6,7-tetrahydro-1H-purine-2,6-dione], the IC50 is reported as 39.1 nM. In the case of `COc1cc(-c2nnc(Cn3c(NCCC(N)=O)nc4c3c(=O)n(C)c(=O)n4C)o2)ccc1C` [Example 132, 3-[(7-{[5-(3-methoxy-4-methylphenyl)-1,3,4-oxadiazol-2-yl]methyl}-1,3-dimethyl-2,6-dioxo-2,3,6,7-tetrahydro-1H-purin-8-yl)amino]propanamide], the IC50 is reported as 157 nM. `COc1cc(-c2nnc(Cn3c(SCCNC(C)=O)nc4c3c(=O)n(C)c(=O)n4C)o2)ccc1C` [Example 141, N-{2-[(7-{[5-(3-methoxy-4-methylphenyl)-1,3,4-oxadiazol-2-yl]methyl}-1,3-dimethyl-2,6-dioxo-2,3,6,7-tetrahydro-1H-purin-8-yl)sulfanyl]ethyl}acetamide] showed an IC50 of 306 nM. `Cn1c(=O)c2c(nc(Cl)n2Cc2cn(-c3ccc(Cl)c(Cl)c3)nn2)n(C)c1=O` [Example 143, 8-chloro-7-{[1-(3,4-dichlorophenyl)-1H-1,2,3-triazol-4-yl]methyl}-1,3-dimethyl-2,3,6,7-tetrahydro-1H-purine-2,6-dione] gave an IC50 of 14000 nM. For `Cc1ccc(-c2nnc(Cn3c(Cl)nc4c3c(=O)n(C)c(=O)n4C)o2)cn1` [Example 106, 8-chloro-1,3-dimethyl-7-{[5-(6-methylpyridin-3-yl)-1,3,4-oxadiazol-2-yl]methyl}-2,3,6,7-tetrahydro-1H-purine-2,6-dione], the IC50 was 2920 nM.
